Measured values taken from PubChem BioAssay (NCI).
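Protocol summary: plate cells (96-well), add compound at 5 concentrations, incubate 48 h, interpolate endpoints linearly. GI50: concentration for 50% inhibition of growth. TGI: total growth inhibition.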

Experiments:
Assay in all cases: NCI-60 cell line screen, 48 h
[1] = system: NCI-H460 lung
[2] = system: CAKI-1 renal
[3] = system: UACC-62 melanoma
[4] = system: UACC-257 melanoma
[5] = system: K-562 leukemia
[6] = system: UO-31 renal
[7] = system: SK-MEL-28 melanoma
[8] = system: CCRF-CEM leukemia
[9] = system: HCT-15 colon
[10] = system: SNB-19 CNS
[11] = system: SK-OV-3 ovarian
[12] = system: NCI-H226 lung
[13] = system: SR leukemia
[14] = system: COLO 205 colon
[15] = system: MDA-MB-435
[16] = system: HOP-92 NSCLC
[17] = system: HS 578T breast
[18] = system: DU-145 prostate
[19] = system: OVCAR-4 ovarian
[20] = system: HL-60(TB) leukemia
[21] = system: NCI/ADR-RES ovarian
[22] = system: SW-620 colon
[23] = system: NCI-H522 lung
[24] = system: A498 renal
[25] = system: RPMI-8226 leukemia
[26] = system: IGROV1 ovarian
[27] = system: SF-295 CNS
[28] = system: SF-268 CNS
[29] = system: HCT-116 colon
[30] = system: HCC-2998 colon
[31] = system: OVCAR-3 ovarian
[32] = system: TK-10 renal
[33] = system: SK-MEL-5 melanoma
[34] = system: OVCAR-8 ovarian
[35] = system: SNB-75 CNS
[36] = system: SK-MEL-2 melanoma
[37] = system: HT29 colon
[38] = system: OVCAR-5 ovarian
[39] = system: SF-539 CNS
[40] = system: EKVX NSCLC
[41] = system: MCF7 breast
[42] = system: U251 CNS
[43] = system: A549 NSCLC
[44] = system: BT-549 breast
[45] = system: NCI-H23 lung
[46] = system: ACHN renal
[47] = system: LOX IMVI melanoma
[48] = system: KM12 colon
[49] = system: 786-0 renal
[50] = system: RXF 393 renal
[51] = system: MDA-MB-231 breast
[52] = system: SN12C renal
[53] = system: HOP-62 NSCLC
[54] = system: MALME-3M melanoma

## COC(=O)N1CCN(CCNCc2ccc(NC(=O)c3ccc(C)c(C#Cc4cnc5cccnn45)c3)cc2C(F)(F)F)CC1
[1]
  GI50: 1.85 µM
  TGI: 3.76 µM
[2]
  GI50: 1.89 µM
  TGI: 4.71 µM
[3]
  GI50: 1.43 µM
  TGI: 3.04 µM
[4]
  GI50: 1.53 µM
  TGI: 3.27 µM
[5]
  TGI: > 100 µM
[6]
  GI50: 1.34 µM
  TGI: 3.14 µM
[7]
  GI50: 1.48 µM
  TGI: 2.89 µM
[8]
  GI50: 1.46 µM
  TGI: 8.22 µM
[9]
  GI50: 1.1 µM
  TGI: 3.07 µM
[10]
  GI50: 2.53 µM
  TGI: 5.89 µM
[11]
  GI50: 2.07 µM
  TGI: 3.85 µM
[12]
  GI50: 1.39 µM
  TGI: 5.32 µM
[13]
  GI50: 0.796 µM
  TGI: 22.1 µM
[14]
  GI50: 1.19 µM
  TGI: 2.79 µM
[15]
  GI50: 1.08 µM
  TGI: 2.39 µM
[16]
  GI50: 0.867 µM
  TGI: 2.83 µM
[17]
  GI50: 1.72 µM
  TGI: 5.04 µM
[18]
  GI50: 2.22 µM
  TGI: 4.77 µM
[19]
  GI50: 1.93 µM
  TGI: 5.86 µM
[20]
  GI50: 0.342 µM
  TGI: 3.22 µM
[21]
  GI50: 2.02 µM
  TGI: 6.24 µM
[22]
  GI50: 1.32 µM
  TGI: 3.41 µM
[23]
  GI50: 1.51 µM
  TGI: 3.23 µM
[24]
  GI50: 2.8 µM
  TGI: 7.35 µM
[25]
  GI50: 1.37 µM
  TGI: 4.32 µM
[26]
  GI50: 1.41 µM
  TGI: 3.43 µM
[27]
  GI50: 1.54 µM
  TGI: 3.03 µM
[28]
  GI50: 2.08 µM
  TGI: 4.78 µM
[29]
  GI50: 0.63 µM
  TGI: 2.32 µM
[30]
  GI50: 1.48 µM
  TGI: 2.86 µM
[31]
  GI50: 2 µM
  TGI: 4.2 µM
[32]
  GI50: 2.21 µM
  TGI: 5.07 µM
[33]
  GI50: 1.58 µM
  TGI: 2.97 µM
[34]
  GI50: 1.82 µM
  TGI: 4.35 µM
[35]
  GI50: 0.372 µM
  TGI: 1.95 µM
[36]
  GI50: 1.15 µM
  TGI: 2.8 µM
[37]
  GI50: 0.769 µM
  TGI: 2.32 µM
[38]
  GI50: 1.39 µM
  TGI: 3.97 µM
[39]
  GI50: 1.4 µM
  TGI: 2.78 µM
[40]
  GI50: 2.04 µM
  TGI: 4.39 µM
[41]
  GI50: 1.47 µM
  TGI: 3.06 µM
[42]
  GI50: 1.53 µM
  TGI: 3.32 µM
[43]
  GI50: 1.69 µM
  TGI: 4.21 µM
[44]
  GI50: 2.4 µM
  TGI: 4.95 µM
[45]
  GI50: 1.17 µM
  TGI: 2.88 µM
[46]
  GI50: 2.32 µM
  TGI: 6.85 µM
[47]
  GI50: 0.743 µM
  TGI: 2.05 µM
[48]
  GI50: 0.434 µM
  TGI: 1.73 µM
[49]
  GI50: 1.45 µM
  TGI: 3.54 µM
[50]
  GI50: 1.73 µM
  TGI: 3.21 µM
[51]
  GI50: 1.26 µM
  TGI: 3.25 µM
[52]
  GI50: 1.68 µM
  TGI: 4.08 µM
[53]
  GI50: 1.59 µM
  TGI: 3.43 µM
[54]
  GI50: 0.893 µM
  TGI: 2.41 µM
